Experimental data as given in PMC9654333, “AmyP53, a Therapeutic Peptide Candidate for the Treatment of Alzheimer’s and Parkinson’s Disease: Safety, Stability, Pharmacokinetics Parameters and Nose-to Brain Delivery” (International Journal of Molecular Sciences, 2022).
Values joined by “and” are separate entries in the source; they are usually repeats but may differ in a detail not shown here. Equal entries are not always repeated. “Also recorded” adds a separate entry of the source. Where two headings read alike, the source gives them in different places. Ends that are not written are not given here.

Tests used:
[1] = design: method as in PMID 22963731, PMID 23444784, PMID 33551991, PMID 17720549, PMID 15728733; conditions: therapeutic peptides delivered to the brain via the intranasal route; cited from earlier work
[2] = Toxicology study, repeated intranasal administration over 7 days; conditions: for Behavior (Days 1–7) / Brain Histology / Inflammation at Nostrils / Body Weight (Day 7): rat; for Body Weight (Day 7): mean ± SEM, in g (unit assumed)
Protocol: Male and female Wistar rats (4 animals per group) were treated with the indicated dose of AmyP53, and toxicology studies were conducted as previously described [75]. Statistical analysis was performed with the Kruskal–Wallis test.

[3] = cited from earlier work
[4] = Pharmacokinetics in rat blood and brain after intranasal or intravenous administration
Description: (§3) Male and female Sprague Dawley rats, 6 weeks old at receipt, weighing around 300 g at the beginning of the experiments were used for pharmacokinetics studies. The animals that were included in these experiments were naïve to the previous administration of drugs. The acclimatization of rats lasted at least 5 days. Animals had free access to food (RM1, SDS Dietex) and drinking water ad libitum. […] The protocol used by Syncrosome was approved by an Animal Ethical Committee (French National Committee N°71) and by the Higher Education and Research Ministry (#2015070314429284_v2). […] Every effort was done to minimize animal suffering and to reduce the number of animals used in the experiments in compliance with the ARRIVE guidelines.
(§4) One compound formulation at one dose for each route of administration was tested during the present study. The data were treated with the PKsolver add-in of Excel [125].
(§5) Anesthetized (ketamine/medetomidine or isoflurane 4% for induction and then 2.5%) rats were treated intravenously once. The final volume of administration was 0.5 mL/kg (100 mg/kg body weight). As soon as the administration was performed (t0), a timer was started.
(§6) A catheter was introduced into each nostril of the rat with a depth of 7 mm [126]. Anesthetized (ketamine/medetomidine or isoflurane 4% for induction and then 2.5%) rats were treated once. The volume of administration was 10 μL/nostril (20 μL per rat, 12 mg/kg body weight). As soon as the administration was performed (t0), a timer was started.
(§7) Blood samples of 2 mL were collected through direct intracardiac puncture and separated on two K3-EDTA Greiner Bio-One tubes of 1 mL (ref. 454034A, Dominique Dutscher, Bernolsheim, France). A 100× solution of protease inhibitors (ref. 1862209, ThermoScientific, Waltham, MA, USA) was added immediately after sampling (10 μL/tube). The first tube of the blood sample was then separated in 2 samples with different procedures (with and without sonication) and the other one was used for plasma preparation.
(§8) Brains were collected immediately after blood collection, split in 2 hemispheres, and then transferred into Eppendorf tubes. Brain samples were placed into crushed dry ice for several minutes and frozen at −80 °C. When indicated, the rats were transcardially perfused with a solution of phosphate-buffered saline (PBS) for 10 min with a flow rate of 40 mL/min to remove blood in the brain tissue. A subcutaneous administration of buprenorphine (0.03 mg/kg) was performed at least 30 min prior to transcardial perfusion.
(§9) For blood and serum stability and for pharmacokinetics studies, blood and plasma samples (200 µL) were incubated with 3 volumes of methanol for 30 min at 4 °C and then centrifuged at 4 °C for 5 min (16,000× g). Supernatants were stored at −20 °C before analysis. Brain homogenates were prepared at 4 °C in PBS containing 1 mM EDTA and protease inhibitors (ref. 1862209, ThermoScientific, Waltham, MA, USA) in a glass Potter homogenizer. Homogenate samples (600 µL) were incubated with 3 volumes of methanol for 30 min at 4 °C and centrifuged at 4 °C for 5 min (16,000× g). Supernatants were evaporated under nitrogen flux and then diluted in 100 µL of 0.1% formic acid in water.
(§10) The concentrations of intact AmyP53 in biological samples were determined by liquid chromatography–mass spectrometry (Acquity iClass-Vion LC-MS; Waters, Guyancourt, France).

[5] = In vitro stability in commercial human serum (LC–MS); assay type: in vitro ADME
Protocol: (§1) Supernatants were stored at −20 °C before analysis.
(§2) AmyP53 in water solution (300 µM) was mixed with rat blood (obtained from Syncrosome, Marseille, France), or commercial human serum (Sigma-Aldrich, St. Louis, MO, USA). AmyP53 concentrations were then determined by LC–MS at the indicated times after extraction, as detailed above.

[6] = rat, in vivo
Description: as §3, §4, §5, §6, §7, §8, §9, §10

in vivo = conditions: both, Sprague Dawley, rat, 12 mg/kg
Description: as §3, §4, §5, §6, §7, §8, §9, §10

[7] = Chemical stability of aqueous solution upon storage (LC–MS); assay type: physicochemical; conditions: 1 mM in pure water, stored 18 months at 4 °C, 20 °C and 45 °C
Protocol: AmyP53 samples (1 mM in water) were stored at 4 °C, 20 °C, and 45 °C in sealed Eppendorf tubes and analyzed at different time points for chemical integrity (LC-MS method) and biological activity (binding to ganglioside GM1). For calibration, different dilutions of the standard solution were injected three times, and the peak area was measured for all three. […] The percentage of recovery was >98%, in full agreement with the certificate analysis of AmyP53 batch # #P190628-LL735654. LC–MS linearity was observed over the 5–100 pmol injected range (R^2 > 0.99). The minimal amount detected was 5 pmol.

[8] = test system: bEnd.3 murine endothelial cells (bEnd.3/C6 co-cultures); test: Transport through in vitro reconstituted blood–brain barrier (two-compartment chamber); assay type: in vitro ADME, mouse; conditions: for Transendothelial transport through the blood–brain barrier: bEnd.3/C6 model, donor basal to acceptor apical compartment
Protocol: An in vitro model of the blood–brain barrier was reconstituted with bEnd.3 murine endothelial cells obtained from the American Type Culture Collection (ATCC, Manassas, VA, USA) ref. bEnd.3 [BEND3] (ATCC CRL-2299). These cells were cultured in chambers with two compartments separated by a filter with a porosity of 0.4 µm (Corning-Transwell, Dominique Dutscher, Bernolsheim, France). The cells were seeded at a density of 50,000 cells per individual filter and cultured in a growth medium containing 10% fetal calf serum. After an initial spreading step, the bEnd.3 cells colonized the entire surface available on the filter, thus reconstituting a functional endothelium. At this stage, the cells established tight junctions preventing the passage of molecules and ions. In order to improve the differentiation of bEnd.3 cells, we also set up two coculture systems: [bEnd.3 + astrocytes (CTX cells)] and [bEnd.3 + glioma (C6 cells)]. In these cases, the glial cells were seeded in the basal compartment (non-contact model) and co-cultured for 6 days before using bEnd.3 cell monolayers for transport experiments. The impermeability of each of these cellular barriers was assessed by transendothelial resistance measurements with a Voltmeter-Ohmmeter Millicell-ERS (Merck-Millipore, Burlington, MA, USA). […] All experiments were performed 6 times.

[9] = In vitro stability in rat whole blood (LC–MS); assay type: in vitro ADME
Protocol: as §1, §2

EPO: therapeutic peptide delivered to the brain via the intranasal route, 165 aa
pHi [1]: 8.7

KEGVLYVGHHTK [AmyP53]
Toxicology findings after repeated intranasal injections ([2]; male and female Wistar rats, doses up to 5 mg/kg body weight, 7-day period): no mortality, no behavioral changes, no body weight loss, and no alterations of brain tissue at autopsy
Behavior (Days 1–7) ([2]; female, intranasal 0.2 mg/kg): NTR NTR
Brain Histology ([2]; female, intranasal 0.2 mg/kg): NTR NTR
Inflammation at Nostrils ([2]; female, intranasal 0.2 mg/kg every two days during 7 days): No No
Body Weight (Day 7) ([2]; female, intranasal 0.2 mg/kg): 189.46 ± 15.15
Behavior (Days 1–7) ([2]; female, intranasal 1.0 mg/kg): NTR NTR
Brain Histology ([2]; female, intranasal 1.0 mg/kg): NTR NTR
Inflammation at Nostrils ([2]; female, intranasal 1.0 mg/kg every two days during 7 days): No No
Body Weight (Day 7) ([2]; female, intranasal 1.0 mg/kg): 191.03 ± 3.13
Behavior (Days 1–7) ([2]; female, intranasal 5.0 mg/kg): NTR NTR
Brain Histology ([2]; female, intranasal 5.0 mg/kg): NTR NTR
Inflammation at Nostrils ([2]; female, intranasal 5.0 mg/kg every two days during 7 days): No No
Body Weight (Day 7) ([2]; female, intranasal 5.0 mg/kg): 185.70 ± 5.77
Behavior (Days 1–7) ([2]; male, intranasal 0.2 mg/kg): NTR NTR
Brain Histology ([2]; male, intranasal 0.2 mg/kg): NTR NTR
Inflammation at Nostrils ([2]; male, intranasal 0.2 mg/kg every two days during 7 days): No No
Body Weight (Day 7) ([2]; male, intranasal 0.2 mg/kg): 248.94 ± 8.51
Behavior (Days 1–7) ([2]; male, intranasal 1.0 mg/kg): NTR NTR
Brain Histology ([2]; male, intranasal 1.0 mg/kg): NTR NTR
Inflammation at Nostrils ([2]; male, intranasal 1.0 mg/kg every two days during 7 days): No No
Body Weight (Day 7) ([2]; male, intranasal 1.0 mg/kg): 252.26 ± 5.77
Behavior (Days 1–7) ([2]; male, intranasal 5.0 mg/kg): NTR NTR
Brain Histology ([2]; male, intranasal 5.0 mg/kg): NTR NTR
Inflammation at Nostrils ([2]; male, intranasal 5.0 mg/kg every two days during 7 days): No No
Body Weight (Day 7) ([2]; male, intranasal 5.0 mg/kg): 250.90 ± 5.68
Inflammatory reaction in the nostrils and the tails ([3]; AmyP53-treated rats): no inflammatory reaction could be observed
Tolerance ([3]; rats, administered intravenously or intranasally): perfect tolerance
Undesirable effects ([3]; rats, intranasal administration, doses up to 5 mg/kg body weight): no undesirable effect could be detected
Undesirable effects ([3]; rats, intravenous administration, doses up to 80 mg/kg): no undesirable effect could be detected
Ratio of AUCIN/AUCiv ([4]; blood): 123%
Ratio of AUCIN/AUCiv ([4]; brain): 94%
solubility (physchem): > 146000 µM and > 200000 µg/mL
half-life at 300 µM ([5]; commercial human serum, read-out: Half-life time): 5 min
Detection after incubation ([5]; human serum, 300 µM, 30 min): no longer detected in serum after 30 min
Tmax ([6]; both, Sprague Dawley, 12 mg/kg): 5 min
AmyP53 reaching the brain [6]: 1.57%
Efficiency of nose-to-brain delivery versus blood circulation [6]: 7.85 fold
Tmax (in vivo): 10 min
Chemical stability in water solution [7]: remains chemically intact over 18 months; also recorded: remained remarkably stable under all these conditions
Transendothelial transport through the blood–brain barrier [8]: almost as effective as synB3 and more than synB5; also recorded: at least as efficiently as syn B3 and even more than syn B5
Transendothelial resistance during incubation ([8]; reconstituted blood–brain barrier, incubation with AmyP53): remained unchanged
half-life at 300 µM ([9]; rat fresh whole blood, read-out: Half-life time): 17 min
Detection after incubation ([9]; rat whole blood, 300 µM, 60 min): still detected after 60 min

NGF: therapeutic peptide delivered to the brain via the intranasal route, 120 aa
pHi [1]: 9.0

RGGRLAYLRRRWAVLGR [synB5, reference compound]
Transendothelial transport through the blood–brain barrier [8]: efficiently crossed the blood–brain barrier

RRLSYSRRRF [synB3, reference compound]
Transendothelial transport through the blood–brain barrier [8]: efficiently crossed the blood–brain barrier

TGF-β: therapeutic peptide delivered to the brain via the intranasal route, 112 aa
pHi [1]: 8.6

VIP: therapeutic peptide delivered to the brain via the intranasal route, 28 aa [reference compound]
pHi [1]: 9.8

Vasopressin [reference compound]
pHi [1]: 8.0
